In US7731941B2, “Staining composition for staining an ophthalmic membrane” (priority 2004, dated 2010):
Several values for one entry are separate records, joined by “and”; a condition that tells them apart may be missing. Equal values may be shown once. Entries after “also recorded” stand apart in the source; their conditions may differ. Read-outs that look alike come from different tables or passages of the source.

Tests used:
anterior capsule [1] = conditions: stated for comparison, no test described; cited from earlier work
corneal endothelium = conditions: single anterior chamber injection; for apoptotic cell death (TUNEL) in corneal stromal cells, endothelium, ciliary body and lens cells: BBG 0.01-10 mg/ml, ICG 5 mg/ml
anterior capsule [2] = experiment: BBG-assisted continuous curvilinear capsulorhexis in a human eye; type: in vivo
Method: A person with a white mature cataract underwent BBG-assisted CCC and phacoemulsification with intraocular lens (IOL) implantation in August 2004. The patient had no other ocular diseases, such as glaucoma, uveitis or corneal disorders. Coomassie® BBG 250 (Sigma-Aldrich, St. Louis, USA) was dissolved in intraocular irrigating solution (OPEGUARD®-MA; Senjyu Pharmaceutical Co., Ltd., Osaka, Japan) at a dose of 0.25 mg/ml and sterilized with a syringe filter. The BBG solution was gently injected into the anterior chamber and then washed out immediately with balanced salt solution (BSS).

retina [3] = conditions: rat, in vivo
anterior capsule [4] = experiment: Capsular staining ability of BBG in pig eyes
Method: The capsular staining ability of BBG was assessed in pig eyes using graded concentrations of the dye.
The pig eyes were obtained from a local slaughterhouse and transported to the laboratory on ice. The extraocular muscles and other connective tissues were carefully cut off and the eyes were placed on the operation chamber. The BBG solution was prepared using the following method. Twenty milligrams of BBG (Coomassie. brilliant blue G 250; Signa-Aldrich, St. Louis, USA) were dissolved in 10 ml of intraocular irrigating solution (OPEGUARD.-MA, Senjyu Pharmaceutical Co., Ltd., Osaka, Japan) and sterilized with a syringe filter (Minisart. Sartorius AG, Goettingen, Germany). Under the operation microscope, the capsular staining by BBG was examined as follows. […] The anterior chamber was immediately irrigated by enhanced balanced salt solution (BSS Plus®, Santen Pharmaceuticals, Japan) and the excessive dye was easily washed out.
To deepen the anterior chamber, 1% sodium hyaluronate (Healon®, Pharmacia, Uppsala, Sweden) was injected. A CCC was initiated by preparing a small triangular anterior capsular flap with a bent 26-gauge disposable needle mounted on a viscoelastic syringe. The CCC was completed using a cystotome or capsulorhexis forceps.

retina [5] = test system: retina
ILM [6] = test system: ILM
ILM [7] = experiment: BBG in ILM staining, effects and safety in human eyes (first attempt, 16 eyes); type: in vivo
Method: Sixteen eyes of 16 patients with a macular hole (MH) and epiretinal membranes (ERMS) were recruited from the outpatient unit of Kyushu University Hospital (Fukuoka, Japan) between August and September 2004. Patients with ocular diseases such as glaucoma, uveitis, and corneal disorder were excluded. This study was carried out with the approval from the appropriate institutional Ethics Committee and was performed in accordance with the ethical standards laid down in the 1989 Declaration of Helsinki. The possible advantages and risks of the present treatment were explained to the patients before surgery and informed consent was obtained from all patients. […] The final concentration of BBG was 0.25 mg/ml. […] Removal of the ILM was performed using ILM forceps (D.O.R.C.; Dutch Ophthalmic Research Center International b.v., Netherlands).
Postoperative examinations included slitlamp microscopy, opthalmoscopy, best corrected visual acuity (BCVA) and intraocular pressure. The visual field was evaluated with Humphrey Field Analyzer II (Humphrey Systems, Dublin, Calif., USA) after 2 months.

[8] = Osmolarity and pH of the BBG solution; type: physicochemical
retina [9] = conditions: rat, in vivo; remark: listed apart in the source
Method: Brown Norway rats (n=78 males, 8 weeks old, Kyudo, Fukuoka, Japan) were anesthetized with an intraperitoneal injection of ketamine hydrochloride at a dose of 75 mg/kg body weight. One eye from each animal (total of n=6 per dose group) was vitrectomized using 0.05 ml of pure SF6 gas as described previously. Following the gas injection, 0.05 ml of BBG solution was injected into the vitreous cavity of each vitrectomized eye using a microscope for enhanced magnification during surgery. […] Twenty-four sham-operated eyes (injected with SF6 followed by 0.05 ml of intraocular irrigating solution) were used as controls.
The eyes were enucleated on day 14 and at 2 months post-operation and fixed in 1% glutaraldehyde and 1% paraformaldehyde in PBS. The specimens were postfixed in veronal acetate buffer osmium tetroxide (2%), dehydrated in ethanol and water, and embedded in Epon. Ultrathin sections were cut from blocks and mounted on copper grids.

ILM [10] = test system: ILM; remark: listed apart in the source
Method: Since ILM peeling is impossible in rat eyes, the inventors examined the ability of BBG to stain the ILM in primate eyes. Two eyes from two cynomolgus monkeys at 3 years of age were used in this study. The animals were restrained in a squeeze cage and injected intramuscularly in the thigh with 20 mg/kg of ketamine hydrochloride (Sankyo Yell Pharmaceutical Products Co. Ltd., Japan) for general anesthesia. The monkeys were subsequently transported to an operating room. Surgery consisted of a standard three port pars plana vitrectomy with induction of a posterior vitreous detachment by suction with a vitrectomy cutter using triamcinolone acetonide injection for vitreous visualization.
Ten milligrams of BBG were dissolved in 20 ml of intraocular irrigating solution and sterilized with a syringe filter. The final concentration of BBG was 0.5 mg/ml. The prepared BBG solution (0.5 ml) was then injected gently into the vitreous cavity and washed out immediately with balanced salt solution (BSS Plus (Registered trademark), Santen, Osaka, Japan). Removal of the ILM was performed using ILM forceps.

cornea = experiment: Anterior chamber injection of dyes in rats: light microscopy (HE); type: in vivo, Brown Norway rats; conditions: single anterior chamber injection; BBG 0.01-10 mg/ml, ICG 5 mg/ml, TB 1 mg/ml; 2 weeks and 2 months
From the text: The eyes were fixed in 4% paraformaldehyde and cut in half, embedded in paraffin, deparaffinized in xylene, rehydrated in ethanol, and washed in phosphate-buffered saline (PBS). The 4 μm thick sections were stained by hematoxylin and eosin, and observed by light microscope.

corneal cells = experiment: Anterior chamber injection of dyes in rats: transmission electron microscopy; conditions: single anterior chamber injection; BBG 10 mg/ml, ICG 5 mg/ml, TB 1 mg/ml
Method: Brown Norway rats (Kyudo, Fukuoka, Japan), postnatal 8 weeks, were studied as follows. The rats were anesthetized with an intraperitoneal injection of pentobarbital and their pupils were dilated with topical 1% tropicamide and 2.5% phenylephrine hydrochloride. The anterior chamber was entered through the clear cornea with a 30-gauge needle mounted on a syringe. Then a single anterior chamber injection was performed with each dye, BBG (10, 1, 0.5, 0.25, 0.1 and 0.01 mg/ml), ICG (5 mg/ml), trypan blue (1 mg/ml), and the control OPEGUARD. solution (n=6 for each dye, total 54 eyes).
The dye remained in the anterior chamber and was followed by biomicroscopic examination for 2 months. The eyes were enucleated at 2 weeks and 2 months after operation. The eyes were analyzed by light microscopy, transmission and scanning electron microscopy.
The eyes were enucleated and the anterior segments were fixed in 1% glutaraldehyde and 1% paraformaldehyde in PBS. The specimens were postfixed in veronal acetate buffer osmium tetroxide (2%), dehydrated in ethanol and water, and embedded in Epon. Ultrathin sections were cut from blocks and mounted on copper grids.

[11] = 0.25 mg/ml, 0.5 ml intravitreal, washed out immediately
[12] = individual patient case, BBG 0.25 mg/ml
[13] = BBG 10 mg/ml in intraocular irrigating solution (OPEGUARD-MA)

Cc1cc(-c2ccc(/N=N/c3c(S(=O)(=O)O)cc4cc(S(=O)(=O)O)cc(N)c4c3O)c(C)c2)ccc1/N=N/c1c(S(=O)(=O)O)cc2cc(S(=O)(=O)O)cc(N)c2c1O [TB, Trypan Blue]
concentration required for staining of the anterior capsule (comparison dyes) (anterior capsule [1]): 1 mg/mL | apoptotic cell death of corneal endothelium, share of the total endothelial cells (corneal endothelium; TB 1 mg/ml): 2%

CCOc1ccc(Nc2ccc(/C(=C3C=C/C(=[N+](/CC)Cc4cccc(S(=O)(=O)[O-])c4)C=C/3C)c3ccc(N(CC)Cc4cccc(S(=O)(=O)[O-])c4)cc3C)cc2)cc1.[Na+] [BBG, Brilliant Blue G]
visibility of the anterior capsule during CCC (anterior capsule [2]; 0.25 mg/ml into anterior chamber, immediately irrigated, white mature cataract): clearly visible | corneal endothelial cell loss (anterior capsule [2]; after 2 months): 0.8% | visual acuity after surgery (anterior capsule [2]; improved from light perception (LP)): 20/20 | acute toxicity (corneal edema, severe inflammation or elevated intraocular pressure) (anterior capsule [2]; the following day): no acute toxicity | infiltration of inflammatory cells (light microscopy) (retina [3]): no infiltration of inflammatory cells was observed | toxic effects such as corneal edema, severe retinal edema, or endophthalmitis (surgical microscopy) (retina [3]): no toxic effects | concentration providing satisfactory staining of the anterior capsule (anterior capsule [4]): 0.25 mg/mL | capsular staining (anterior capsule [4]; 0.1 mg/ml and 0.01 mg/ml): obscure | staining of the anterior capsule (anterior capsule [4]; 0.25 mg/ml to 1 mg/ml, staining deepened with concentration): stained the anterior capsule homogenously | minimal concentration needed to produce high quality staining with clear visualization (anterior capsule [4]; pig eye anterior capsule): 0.25 mg/mL | apoptotic cell death of retinal cells (retina [5]; all BBG dose groups, after 2 months): had not undergone apoptotic cell death | apoptotic cell death in retina (TUNEL) (retina [5]; intravitreal 10 mg/ml, day 14): one case of apoptotic cell death was observed from among ten sections | apoptotic cell ratio compared with control sections (retina [5]; intravitreal 10 mg/ml, day 14): not significantly different | TUNEL staining in the retina (retina [5]; intravitreal lower doses, day 14): no TUNEL staining was observed | staining of the ERM in ERM cases (ILM [6]; 0.25 mg/ml): could not be confirmed | ILM staining in MH cases (ILM [6]; [11]): stained a bright blue color instantly | staining of the ILM of the area where the ERM had been removed (ILM [6]; 0.25 mg/ml, second injection after ERM peeling): well stained | removal of the ILM including the ERM during surgery (ILM [6]; 20 eyes): removed from all 20 eyes successfully | patients with improvement of 2 or more lines on the Snellen chart (ILM [6]; ERM cases, eight of 10 patients): 80% | mean foveal thickness of retina measured with OCT, postoperative (ILM [6]; ERM cases, preoperative 454.7±141.3 μm): 249.4±71.3 μm | postoperative median BCVA (ILM [6]; ERM cases, preoperative median 20/50): 20/32 | eyes with visual acuity improved by 2 or more Snellen lines (ILM [6]; MH cases, 9 of 10 eyes): 90% | postoperative median BCVA (ILM [6]; MH cases, preoperative median 20/100): 20/32 | closure of MH (ophthalmoscopy and OCT) (ILM [6]; all 10 MH cases): completely closed anatomically | complication: protraction of vitreous hemorrhage (ILM [6]; in vivo): one case | complications: iatrogenic peripheral retinal breaks (ILM [6]; in vivo): two cases | elevation of IOP (ILM [6]; in vivo): 26 mmHg | other adverse effects such as retinal pigment epithelium (RPE) atrophy (ILM [6]; in vivo): No other adverse effects | Postop. Retinal status (ILM [6]; individual MH case): MH closed | staining of the ERMS (ILM [7]; 0.25 mg/ml): could not be confirmed | ILM staining (ILM [7]; [11]): stained a light blue color | elevation of intraocular pressure (ILM [7]; 16 eyes, BBG 0.25 mg/ml): None of the patients had an elevation of intraocular pressure | visual acuity (ILM [7]; 16 eyes, MH and ERM, BBG 0.25 mg/ml assisted peeling): recovered in all cases | Postop. Retinal status (ILM [7]; [12]): MH closed; also recorded: Fold (−); also recorded: Macular | complications (ILM [7]; [12]): Peripheral (2×) and none (13×) and Vitreous | Postop. BCVA (ILM [7]; individual patient case, BBG 0.25 mg/ml, follow up 2-4 months): 20/50 (2×) and 20/63 (2×) and 20/25 (2×) and 20/32 (4×) and 20/40 (3×) and 20/16 and 20/20 | other adverse effects due to BBG (ILM [7]; within the observation period): No other adverse effects | Osmolarity ([8]; BBG 0.01 mg/ml in OPEGUARD-MA): 298 mOsm/KgH20 | pH ([8]; BBG 0.01 mg/ml in OPEGUARD-MA): 7.41 | Osmolarity ([8]; BBG 0.1 mg/ml in OPEGUARD-MA): 298 mOsm/KgH20 | pH ([8]; BBG 0.1 mg/ml in OPEGUARD-MA): 7.41 | osmolarity of prepared BBG solution ([8]; BBG 0.25 mg/ml in OPEGUARD-MA): 289 mOsm | pH of prepared BBG solution ([8]; BBG 0.25 mg/ml in OPEGUARD-MA): 7.44 | Osmolarity ([8]; BBG 1.0 mg/ml in OPEGUARD-MA): 300 mOsm/KgH20 | pH ([8]; BBG 1.0 mg/ml in OPEGUARD-MA): 7.42 | Osmolarity [8, 13]: 310 mOsm/KgH20 | pH [8, 13]: 7.41 | apoptotic cell death (TUNEL) in corneal stromal cells, endothelium, ciliary body and lens cells (corneal endothelium): no TUNEL staining was observed | changes in inner nuclear, outer nuclear and retinal pigment epithelial cell layers (TEM) (retina [9]): no remarkable changes were observed | ILM staining (ILM [10]; 0.5 mg/ml, 0.5 ml into vitreous cavity, washed out immediately): stained a light blue color | concentration of BBG required to stain the ILM of primates in comparison with ICG (ILM [10]; ratio to ICG concentration): about 1/10

CC1(C)C(/C=C/C=C/C=C/C=C2\N(CCCCS(=O)(=O)O)c3ccc4ccccc4c3C2(C)C)=[N+](CCCCS(=O)(=O)[O-])c2ccc3ccccc3c21 [ICG, Indocyanine green]
changes in hematoxilin and eosin stained sections of the cornea (cornea): no remarkable changes | ultrastructure of corneal cells and endothelium (TEM) (corneal cells): some endothelial cells demonstrated signs of mitochondrial swelling | concentration required for staining of the anterior capsule (comparison dyes) (anterior capsule [1]): 5 mg/mL | apoptotic cell death (TUNEL) in corneal stromal cells, endothelium, ciliary body and lens cells (corneal endothelium): no apparent apoptotic cell death was detected
